Data reported in ChEMBL document CHEMBL4834448, “Toward the assembly and characterization of an encoded library hit confirmation platform: Bead-Assisted Ligand Isolation Mass Spectrometry (BALI-MS)” (Bioorg Med Chem, 2021).

biological target: Bromodomain-containing protein 4 (Homo sapiens, UniProt O60885); experiment: Displacement of Alexafluor 647-conjugated PFI-1 from N-terminal-His6-tagged human BRD4 BD1 domain (44 to 170 residues) incubated for 30 mins by fluorescence polarization assay

| SMILES | IC50 |
| --- | --- |
| CNCCN(C)c1ccc2nnc(C)n2n1 | > 30000 nM |
| Cc1nnc2ccc(N(C)CCC3CCNCC3)nn12 | 2420 nM |
| CN(C[C@H]1CC[C@H](N)CC1)c1ccc2nncn2n1 | 11800 nM |
| CCc1nnc2ccc(N(C)C[C@H]3CC[C@H](N)CC3)nn12 | 790 nM |
